US20030003396A1, “Optical data carrier comprising a merocyanine dye as light-absorbent compound in the information layer” (priority 2001, published 2003)

Key:
[1] = UV absorption spectra measured in solution; format: physicochemical; conditions: for ε (molar extinction coefficient): at absorption maximum; for λ1/2-λ1/10: short wavelength flank
Text: In the case of a write-once optical data carrier according to the invention which is written on and read by means of the light of a blue laser, preference is given to merocyanine dyes whose absorption maximum λmax1 is in the range from 340 to 410 nm, […] half of the […] one tenth of the absorbance value at λmax1 are preferably not more than 50 nm apart. Such a merocyanine dye preferably has no longer-wavelength maximum λmax2 up to a wavelength of 500 nm, particularly preferably up to 550 nm, very particularly preferably up to 600 nm.
The absorption spectra are measured, for example, in solution.
Suitable merocyanines having the required spectral properties are, in particular, those in which the dipole moment change Δμ=|μg−μag|, i.e. the positive difference between the dipole moments in the ground state and in the first excited state, is very small, preferably <5 D, particularly preferably <2 D. A method of determining such a dipole moment change Δμ is described, for example, in F. Würthner et al., Angew. Chem. 1997, 109, 2933, and in the literature cited therein. A low solvent-induced wavelength shift (dioxane/DMF) is likewise a suitable selection criterion. Preference is given to merocyanines whose solvent-induced wavelength shift Δλ=|λDMF−λdioxane|, i.e. the positive difference between the absorption wavelengths in the solvents dimethylformamide and dioxane, is <20 nm, particularly preferably <10 nm, very particularly preferably <5 nm

[2] = Solubility in coating solvent
[3] = in TFP (2,2,3,3-tetrafluoropropanol)

For CCOC(=O)C1=C(C#N)C(=O)N(C)C(=O)/C1=C/C=C/N(C)C [Example 2], the “ε (molar extinction coefficient)” value [1] was 31630 L/mol/cm, the “UV λmax” value ([1]; in DMF) was 567 nm and the “UV λmax” value ([1]; in dioxane) was 542 nm. For the same compound, the λ1/2-λ1/10 [1] was 42 nm, the “Δλ (solvent-induced wavelength shift)” value ([1]; |λDMF−λdioxane|) was 25 nm and the Solubility [2, 3] was > 2%.
With CC1=C([n+]2ccccc2)C(=O)NC(=O)/C1=C/C=C1\N(C)c2ccccc2C1(C)C [Example 3] the “ε (molar extinction coefficient)” value [1] was 86510 L/mol/cm, the UV λmax ([1]; in methanol) was 513 nm and the λ1/2-λ1/10 [1] was 38 nm. For the same compound, the Solubility [2, 3] was > 2%.
With CCCCCCCCCCCCN1C(=O)/C(=C/c2ccc(N(C)C)o2)C(=O)N(C)C1=O [Example 4] the “ε (molar extinction coefficient)” value [1] was 53360 L/mol/cm, the “UV λmax” value ([1]; in dioxane) was 483 nm and the λ1/2-λ1/10 [1] was 32 nm. For the same compound, the Solubility ([2]; in benzyl alcohol) was > 1%.
